Structures are written as SMILES.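 Five compound concentrations were applied to cells in 96-well plates for 48 hours; endpoints were derived by simple linear interpolation of the resulting dose-response curve. GI50: concentration for 50% inhibition of growth.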 Calls of active or inactive are those of the source. Cut-off read from the data, not from the text of the source: active = GI50 up to about 1.1 µM and inactive = higher. Where a SMILES comes first, the peptide text is derived from it. [ ]: non-standard residue; d: D form. The star is where a group is joined. ξ: configuration not given here. ξF = NC(Cc1ccccc1)C(=O)O; Cbz = O=C(OCc1ccccc1)*; Aib = CC(C)(N)C(=O)O

Among the test systems are A549; ACHN; CAKI-1; HOP-62; HT-29; MDA-MB-231; MDA-MB-435; NCI-H23; OVCAR-3; PC-3; SK-MEL-28; SR; SW-620; U-251; UACC-257; UACC-62; UO-31; CCRF-CEM; HL-60; SN12C.
Common to all, as to experiment: NCI-60 cell line screen, 48 h

With `O=[N+]([O-])c1ccc(Nc2nc3ccccc3s2)cc1`, the GI50 is 47.6 µM (inactive) in the experiment on A549; 29.5 µM (inactive) in the experiment with ACHN; > 100 µM (inactive) in the experiment on CAKI-1; 29.2 µM (inactive) in the experiment with HOP-62; 34.6 µM (inactive) with HT-29; 18 µM (inactive) in the experiment on MDA-MB-231. Moreover, the GI50 in the experiment with MDA-MB-435 was 37.9 µM (inactive); with NCI-H23, 16 µM (inactive); with OVCAR-3 it was 18.7 µM (inactive); with PC-3, 16.3 µM (inactive); in the experiment on SK-MEL-28, 46.2 µM (inactive); in the experiment with SR, 10.7 µM (inactive). Besides, the GI50 was 35 µM (inactive) in the experiment on SW-620; 17.3 µM (inactive) in the experiment on U-251; 25.8 µM (inactive) with UACC-257; 20.2 µM (inactive) in the experiment on UACC-62; 18.5 µM (inactive) with UO-31.
With `CN(C)C(=S)SCc1ccccc1`, the GI50 is > 100 µM (inactive) in the experiment on A549; > 100 µM (inactive) in the experiment with CAKI-1; > 100 µM (inactive) in the experiment on CCRF-CEM; 99.1 µM (inactive) in the experiment on HL-60; > 100 µM (inactive) in the experiment with HOP-62; > 100 µM (inactive) in the experiment with HT-29. Also, the GI50 in the experiment with MDA-MB-231 was 99.1 µM (inactive); in the experiment with MDA-MB-435, > 100 µM (inactive); in the experiment on NCI-H23 it was > 100 µM (inactive); in the experiment with OVCAR-3 it was > 100 µM (inactive); with SK-MEL-28 it was > 100 µM (inactive); in the experiment with SN12C, > 100 µM (inactive). The GI50 with SW-620 is > 100 µM (inactive); in the experiment on U-251 it was > 100 µM (inactive); in the experiment on UACC-257, 79.8 µM (inactive); with UACC-62, > 100 µM (inactive); with UO-31, 53.7 µM (inactive).
For `CCCOC(=O)CCC(NC(=O)c1ccc(Nc2nc3ccccc3nc2-c2cccs2)cc1)C(=O)OCCC` (stereo not drawn), the GI50 in the experiment on A549 is > 100 µM (inactive); with ACHN, > 100 µM (inactive); in the experiment with CAKI-1, > 100 µM (inactive); in the experiment with CCRF-CEM, 3.62 µM (inactive); in the experiment with HOP-62, > 100 µM (inactive); in the experiment with NCI-H23, > 100 µM (inactive). For the same molecule, the GI50 was > 100 µM (inactive) with OVCAR-3; > 100 µM (inactive) in the experiment on SK-MEL-28; > 100 µM (inactive) in the experiment with SN12C; 61.9 µM (inactive) with SR; > 100 µM (inactive) with SW-620; > 100 µM (inactive) in the experiment with U-251. Also, the GI50 with UACC-62 was 41.7 µM (inactive); with UO-31, 95.9 µM (inactive).
In the case of `Cc1cccc2c1Sc1ccccc1C2NC(=O)CN(C)C` (stereo not drawn), the GI50 in the experiment on A549 was > 100 µM (inactive); in the experiment on ACHN it was 43.4 µM (inactive); in the experiment with CCRF-CEM, > 100 µM (inactive); in the experiment on HL-60, 74.5 µM (inactive); with HOP-62, > 100 µM (inactive); in the experiment with HT-29, 69.2 µM (inactive). Further, the GI50 in the experiment with NCI-H23 was > 100 µM (inactive); with SK-MEL-28 it was 52.4 µM (inactive); with SN12C, 81.5 µM (inactive); with SR, 54.7 µM (inactive); in the experiment with SW-620, > 100 µM (inactive); in the experiment with U-251 it was > 100 µM (inactive). The GI50 with UACC-257 is 52.6 µM (inactive); in the experiment with UACC-62 it was > 100 µM (inactive); with UO-31 it was 33.6 µM (inactive).
Take `Nc1nc(=S)[nH]c2nc3c(c(-c4ccccc4)c12)CCCC3`: the GI50 in the experiment on A549 was > 100 µM (inactive); in the experiment on ACHN, > 100 µM (inactive); in the experiment with CAKI-1, > 100 µM (inactive); with CCRF-CEM, > 10 µM (inactive); in the experiment with HL-60 it was > 100 µM (inactive); in the experiment with HOP-62, > 100 µM (inactive). The GI50 in the experiment with HT-29, with MDA-MB-231, in the experiment with MDA-MB-435, in the experiment with NCI-H23, in the experiment on OVCAR-3 and in the experiment with PC-3 was > 100 µM (inactive) each time. For the same molecule, the GI50 in the experiment with SN12C is 67.8 µM (inactive); in the experiment on SR, > 100 µM (inactive); with SW-620, > 100 µM (inactive); in the experiment on U-251, > 100 µM (inactive); in the experiment with UACC-257, > 10 µM (inactive); with UACC-62 it was > 100 µM (inactive). Moreover, the GI50 in the experiment with UO-31 is > 100 µM (inactive).
As to `C=CC(Br)(CBr)CCC(Cl)C(C)C` (stereo not drawn), the GI50 in the experiment on A549 was 4.69 µM (inactive); in the experiment with ACHN, 2.53 µM (inactive); in the experiment on CAKI-1, 2.62 µM (inactive); in the experiment with CCRF-CEM it was 0.364 µM (active); in the experiment with HL-60, 0.561 µM (active); in the experiment with HOP-62, 1.8 µM (inactive). Also, the GI50 was 1.66 µM (inactive) in the experiment with HT-29; 1.4 µM (inactive) in the experiment with MDA-MB-231; 1.82 µM (inactive) in the experiment with MDA-MB-435; 2.74 µM (inactive) with NCI-H23; 2.02 µM (inactive) in the experiment on OVCAR-3; 3.45 µM (inactive) in the experiment with PC-3. The GI50 in the experiment on SK-MEL-28 is 1.58 µM (inactive); in the experiment on SN12C, 1.73 µM (inactive); with SR, 0.481 µM (active); in the experiment with SW-620, 1.69 µM (inactive); with U-251 it was 1.66 µM (inactive); with UACC-257, 2.25 µM (inactive). Further, the GI50 with UACC-62 was 1.5 µM (inactive); with UO-31 it was 1.64 µM (inactive).
As to `COc1ccc(NC2=NCCO2)c2ccccc12`, the GI50 in the experiment on A549, in the experiment on ACHN, with CAKI-1, in the experiment with CCRF-CEM, with HL-60 and with HOP-62 was > 10 µM (inactive) in each case. The GI50 in the experiment with HT-29, in the experiment on MDA-MB-231, with MDA-MB-435, in the experiment with OVCAR-3, in the experiment on PC-3 and in the experiment on SK-MEL-28 was > 10 µM (inactive) throughout. Also, the GI50 in the experiment with SN12C, with SR, with SW-620, in the experiment with UACC-62 and with UO-31 was > 10 µM (inactive) throughout.
As for `O=c1c2cc(I)ccc2nc(-c2cccs2)n1Nc1ccccc1`, the GI50 is 1.06 µM (active) with A549; 0.675 µM (active) in the experiment with ACHN; 11 µM (inactive) in the experiment on CAKI-1; 0.416 µM (active) with HL-60; 18.8 µM (inactive) in the experiment with HOP-62; 3.21 µM (inactive) in the experiment on HT-29. Also, the GI50 in the experiment with MDA-MB-435 was 0.649 µM (active); in the experiment on NCI-H23, 19.9 µM (inactive); in the experiment on OVCAR-3, 1.16 µM (inactive); in the experiment on PC-3, 1.61 µM (inactive); with SK-MEL-28, 17.9 µM (inactive); with SN12C, 46.8 µM (inactive). Moreover, the GI50 in the experiment on SR was 12.1 µM (inactive); in the experiment on SW-620, 2.72 µM (inactive); in the experiment on U-251 it was 10.4 µM (inactive); with UACC-62 it was 0.719 µM (active); in the experiment on UO-31, 0.889 µM (active).
Consider `COC(=O)C(C)(C)NC(=O)C(Cc1ccccc1)NC(=O)C(C)(C)NC(=O)OCc1ccccc1` (stereo not drawn) (Cbz-[Aib]-[ξF]-[Aib]-OMe), for which the GI50 in the experiment with A549, with ACHN, in the experiment on CAKI-1, in the experiment with CCRF-CEM, in the experiment with HL-60 and with HOP-62 was > 100 µM (inactive) throughout. Further, the GI50 with HT-29, with MDA-MB-231, in the experiment with MDA-MB-435, in the experiment with OVCAR-3, in the experiment on PC-3 and with SK-MEL-28 was > 100 µM (inactive) each time. Further, the GI50 in the experiment on SW-620, with U-251, with UACC-257, with UACC-62 and with UO-31 was > 100 µM (inactive) throughout.

(Values after ChEMBL document CHEMBL1201862, “PubChem BioAssay data set” (2004).)
